± gives the expanded uncertainty stated by the source.
Assays:
[1] = molar heat capacity at constant pressure; settings: 298 K; 101.33 kPa; Liquid; Vacuum adiabatic calorimetry
[2] = Molar enthalpy of transition or fusion; settings: Crystal 1; Adiabatic calorimetry
[3] = Crystal 1; Adiabatic calorimetry

## CCCCn1cc[n+](C)c1.[I-] [1-butyl-3-methylimidazolium iodide]
[1]
  molar heat capacity at constant pressure: 310 ± 2.4 J/K/mol
[2]
  Molar enthalpy of transition or fusion: 4.54 ± 0.0478 kcal/mol
[3]
  Triple point temperature: 291.87 ± 0.05 K
